Experimental data from US8399440B2, “Disease modifying anti-arthritic activity of 2-methoxyestradiol” (EntreMed, Inc., priority 2006, dated 2013).

How the values were obtained:
[1] = tested on: Collagen-Induced Arthritis; experiment: Collagen-induced arthritis (UCLA studies); assay type: in vivo, Rat (Louvain)
[2] = tested on: Adjuvant-Induced Arthritis; experiment: Adjuvant arthritis, clinical arthritis severity; assay type: in vivo, Rat (Lewis); conditions: for arthritis severity (clinical score) by day 14, mean: vehicle reached score 11
[3] = tested on: Adjuvant-Induced Arthritis (Adoptive Transfer Model); experiment: Adjuvant-induced arthritis, adoptive transfer model; assay type: in vivo, Rat (Lewis); conditions: Dalhousie Study #2; 3, 30 mg/kg/d SC
[4] = tested on: joint synovium and articular cartilage; experiment: Joint histology and cartilage damage (H&E, safranin O); assay type: in vivo, Rat (Lewis)
Method: (§1) Tissue samples, including joints, were fixed in 10% phosphate-buffered formalin or AFA fixative ([…], 2% formalin, 5% glacial acetic acid, 20% water), the latter for immunostaining. Samples were then decalcified in formic or acetic acid and paraffin embedded. Sections (5 μm) were stained with hematoxylin-eosin (H&E) using routine techniques. To stain cartilage proteoglycan, separate sections were stained with safranin O (Difco, Detroit, Mich.) for 1 min. as described previously (Issekutz, (2001). To assess microvessel density in the synovium, rabbit anti-mouse laminin polyclonal IgG antibody (Cedarlane Laboratories Limited, Homby, ON) was used to outline vessels, with detection using biotinylated goat anti-rabbit IgG antibody and avidin-biotin complexed with HRPO according to manufacturer's recommendations (Vectastain Elite ABC kit; Vector Laboratories Canada Inc., Burlington, ON).
Even by the H&E staining the cartilage damage is visible on the articular surfaces and margins. This is more profoundly illustrated by the safranin O staining with marked focal proteoglycan loss and fragmentation.

[5] = tested on: synovial microvessels; experiment: Synovial vascularity by laminin immunostaining; assay type: in vivo, Rat (Lewis); conditions: between the various treatment groups and vehicle, any vessel size
Method: as §1
To assess synovial vascularity and angiogenesis, sections were immunostained for laminin to reliably delineate microvessels as well as medium-sized vessels. […] The other commonly used endothelial cell marker, CD31, was also evaluated on the synovial tissue. […] This vascularity was quantitated in synovia from rats treated with the various protocols and compared to vehicle-treated animals. […] Only vessels that were in cross-section were scored. […]

[6] = tested on: spleen; experiment: Splenomegaly and spleen histology in adjuvant arthritis; assay type: in vivo, Rat (Lewis)
Method: During the course of AA in the rat, splenomegaly is a prominent feature due to splenitis, lymphoid hyperplasia and even abscess formation. Therefore the splenic enlargement in these animals was monitored for any effect of 2ME2 on this parameter. In rats that were treated with vehicle, spleen weights increased dramatically, increasing nearly three-fold.
A histological examination of the spleens was undertaken in the different groups. The appearance of a normal rat spleen (A) and vehicle-treated spleen (B).

[7] = target: T1, estrogen receptor α (Homo sapiens, UniProt P03372); conditions: LaVallee et al. 2002; cited from earlier work
T1 sequence (P03372 1-595): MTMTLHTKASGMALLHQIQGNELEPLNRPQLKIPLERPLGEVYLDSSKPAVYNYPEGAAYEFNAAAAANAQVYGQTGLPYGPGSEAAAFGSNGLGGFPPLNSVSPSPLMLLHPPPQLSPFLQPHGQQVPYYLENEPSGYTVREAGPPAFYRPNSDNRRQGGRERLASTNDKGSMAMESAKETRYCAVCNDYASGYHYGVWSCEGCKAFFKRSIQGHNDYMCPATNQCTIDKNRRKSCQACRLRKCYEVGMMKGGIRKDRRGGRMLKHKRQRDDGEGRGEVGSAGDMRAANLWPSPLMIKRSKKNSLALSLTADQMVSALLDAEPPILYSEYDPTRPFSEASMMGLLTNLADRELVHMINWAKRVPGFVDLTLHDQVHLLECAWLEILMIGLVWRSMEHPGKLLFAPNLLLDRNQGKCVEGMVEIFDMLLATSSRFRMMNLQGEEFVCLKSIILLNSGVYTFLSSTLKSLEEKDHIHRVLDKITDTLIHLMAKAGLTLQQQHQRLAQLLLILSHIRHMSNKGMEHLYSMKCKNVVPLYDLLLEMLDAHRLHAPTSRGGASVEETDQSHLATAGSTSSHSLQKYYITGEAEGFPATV

COc1cc2c(cc1O)CC[C@@H]1[C@@H]2CC[C@]2(C)[C@@H](O)CC[C@@H]12 [2ME2, 2-methoxyestradiol]
onset of disease ([1]; UCLA Study #1, PO): Delays onset | inhibition of clinical arthritic score and bone erosion ([1]; UCLA Study #1, prevention 30, 100 mg/kg/d PO, treatment 10, 30, 100 mg/kg/d PO): Dose dependent | inhibition of clinical arthritic score, inflammation, and bone erosion, cartilage degradation and pannus formation ([1]; UCLA Study #2, treatment from day 10, 50 mg/kg BID, 100 or 300 mg/kg/d PO or 60 mg/kg/d SC osmotic pumps): Dose dependent | arthritis severity (clinical score) by day 14, mean ([2]; 30 mg/kg/d i.p. initiated day 6 post-immunization): 7.4 | modification of arthritis severity ([2]; 30 mg/kg/d initiated on day 10 post-immunization): did not reach statistical significance | arthritis severity (clinical score) by day 14, mean ([2]; 100 mg/kg/d i.p. initiated day 6 post-immunization): 6.5 | arthritis severity ([2]; 100 mg/kg/d initiated at onset of clinical arthritis, day 10 post-immunization): attenuation of arthritis severity | inhibition of clinical arthritic score, inflammation, and bone destruction [3]: Dose dependent | articular cartilage surfaces and proteoglycan staining ([4]; 100 mg/kg/d initiated at day 6 post-immunization): preservation of articular cartilage surfaces and proteoglycan staining | leukocyte infiltration of the synovium ([4]; 100 mg/kg/d initiated at day 6 post-immunization, compared to vehicle): less intense leukocyte infiltration | cartilage preservation ([4]; treatment delayed to day 10): cartilage preservation was still observed | leukocyte cellularity in the synovium ([4]; treatment delayed to day 10): less noticeably affected | vessel density per 0.8 mm^2 (small, medium, large vessels) in synovium [5]: no significant difference | spleen histology ([6]; 30 mg/kg/d from day 6-14 post-immunization, no increase in giant cells or abscess formation, no lymphoid hyperplasia): Only mild splenitis | increase in spleen weight (splenic enlargement) ([6]; 30 mg/kg/d started on day 6 post-immunization): completely inhibited | splenic abscess formation, giant cells, and lymphoid hyperplasia ([6]; Dalhousie Study #1, 30, 100 mg/kg/d PO): Decreased | increase in spleen weight (splenic enlargement) ([6]; high dose (100 mg/kg/d) started on day 6 post-immunization): completely inhibited | splenic enlargement ([6]; treatment initiated at day 10): markedly inhibited | affinity for estrogen receptor α [7]: low affinity
